Test results published in ChEMBL document CHEMBL5303573, “Mapping human microbiome drug metabolism by gut bacteria and their genes” (Nature, 2019).

Columns and labels:
[1] = The drug is tested on Edwardsiella tarda strain: ATCC23685 for biotransformation. The drug concentrations were measured before and after a 12-h incubation by liquid-chromatography-coupled mass spectrometry (LC–MS); conditions: 2 µM
[2] = The drug is tested on Dorea formicigenerans strain: ATCC27755 for biotransformation. The drug concentrations were measured before and after a 12-h incubation by liquid-chromatography-coupled mass spectrometry (LC–MS); conditions: 2 µM
[3] = The drug is tested on Ruminococcus gnavus strain: ATCC29149 for biotransformation. The drug concentrations were measured before and after a 12-h incubation by liquid-chromatography-coupled mass spectrometry (LC–MS); conditions: mediterraneibacter gnavus, 2 µM
[4] = The drug is tested on Bacteroides fragilis strain: HMW610 for biotransformation. The drug concentrations were measured before and after a 12-h incubation by liquid-chromatography-coupled mass spectrometry (LC–MS); conditions: 2 µM
[5] = The drug is tested on Bacteroides vulgatus strain: ATCC8482 for biotransformation. The drug concentrations were measured before and after a 12-h incubation by liquid-chromatography-coupled mass spectrometry (LC–MS); conditions: phocaeicola vulgatus, 2 µM
[6] = bacteroides stercoris, 12 h, 2 µM
Description: The drug is tested on Bacteroides stercoris strain: ATCC43183 for biotransformation. The drug concentrations were measured before and after a 12-h incubation by liquid-chromatography-coupled mass spectrometry (LC–MS)

[7] = akkermansia muciniphila, 12 h, 2 µM
Description: The drug is tested on Akkermansia muciniphila strain: ATCC BAA-835 for biotransformation. The drug concentrations were measured before and after a 12-h incubation by liquid-chromatography-coupled mass spectrometry (LC–MS)

[8] = bacteroides intestinalis, 12 h, 2 µM
Description: The drug is tested on Bacteroides intestinalis strain: DSM17393 for biotransformation. The drug concentrations were measured before and after a 12-h incubation by liquid-chromatography-coupled mass spectrometry (LC–MS)

[9] = The drug is tested on Bacteroides xylanisolvens strain: DSM18836 for biotransformation. The drug concentrations were measured before and after a 12-h incubation by liquid-chromatography-coupled mass spectrometry (LC–MS); conditions: 2 µM
[10] = The drug is tested on Enterobacter cancerogenus strain: ATCC35316 for biotransformation. The drug concentrations were measured before and after a 12-h incubation by liquid-chromatography-coupled mass spectrometry (LC–MS); conditions: 2 µM
[11] = parabacteroides distasonis, 12 h, 2 µM
Description: The drug is tested on Parabacteroides distasonis strain: ATCC8503 for biotransformation. The drug concentrations were measured before and after a 12-h incubation by liquid-chromatography-coupled mass spectrometry (LC–MS)

[12] = The drug is tested on Coprococcus comes strain: ATCC27758 for biotransformation. The drug concentrations were measured before and after a 12-h incubation by liquid-chromatography-coupled mass spectrometry (LC–MS); format: ADME; parameters: dose 2 uM, timepoint 0 vs 12 hours; conditions: 2 µM
[13] = The drug is tested on Providencia stuartii strain: ATCC25827 for biotransformation. The drug concentrations were measured before and after a 12-h incubation by liquid-chromatography-coupled mass spectrometry (LC–MS); conditions: 2 µM
[14] = The drug is tested on Bacteroides cellulosilyticus strain: DSM14838 for biotransformation. The drug concentrations were measured before and after a 12-h incubation by liquid-chromatography-coupled mass spectrometry (LC–MS); conditions: 2 µM
[15] = The drug is tested on Bacteroides pectinophilus strain: ATCC43243 for biotransformation. The drug concentrations were measured before and after a 12-h incubation by liquid-chromatography-coupled mass spectrometry (LC–MS); conditions: 2 µM
[16] = parabacteroides johnsonii, 12 h, 2 µM
Description: The drug is tested on Parabacteroides johnsonii strain: DSM18315 for biotransformation. The drug concentrations were measured before and after a 12-h incubation by liquid-chromatography-coupled mass spectrometry (LC–MS)

[17] = The drug is tested on Bacteroides fragilis strain: HMW615 for biotransformation. The drug concentrations were measured before and after a 12-h incubation by liquid-chromatography-coupled mass spectrometry (LC–MS); conditions: 2 µM
[18] = The drug is tested on Bacteroides coprophilus strain: DSM18228 for biotransformation. The drug concentrations were measured before and after a 12-h incubation by liquid-chromatography-coupled mass spectrometry (LC–MS); conditions: 2 µM
[19] = enterocloster bolteae, 12 h, 2 µM
Description: The drug is tested on Clostridium bolteae strain: ATCCBAA-613 for biotransformation. The drug concentrations were measured before and after a 12-h incubation by liquid-chromatography-coupled mass spectrometry (LC–MS)

Measured: Bacterial Biotransformation

CCCc1nc2c(C)cc(-c3nc4ccccc4n3C)cc2n1Cc1ccc(-c2ccccc2C(=O)O)cc1
Compound metabolized: [4] | [5] | [6] | [9] | [11] | [14]
not listed: [15] | [16] | [17] | [18] | [19]
Compound NOT metabolized: all other assays above

C[C@@H](CO)NC(=O)[C@@H]1C=C2c3cccc4[nH]cc(c34)C[C@H]2N(C)C1.O=C(O)/C=C\C(=O)O [ERGONOVINE MALEATE]
Compound NOT metabolized: [1] | [6] | [7]
not listed: [3] | [11] | [19]
Compound metabolized: all other assays above

NC(CO)(CO)CO.O=C(c1ccccc1)c1ccc2n1CCC2C(=O)O (stereo unspecified) [KETOROLAC TROMETHAMINE]
Compound metabolized: [3] | [4] | [5] | [9]
Compound NOT metabolized: [15] | [2] | [19] | [8] | [16] | [10] | [13] | [14]

OC(c1cc(C(F)(F)F)nc2c(C(F)(F)F)cccc12)C1CCCCN1 (stereo unspecified) [MEFLOQUINE]
not listed: [1] | [7]
Compound NOT metabolized: all other assays above

CCN(C)C(=O)Oc1cccc([C@H](C)N(C)C)c1.O=C(O)C(O)C(O)C(=O)O [RIVASTIGMINE TARTRATE]
not listed: [5] | [18] | [19]
Compound NOT metabolized: all other assays above

CCCN(CCC)CCc1cccc2c1CC(=O)N2 [ROPINIROLE]
not listed: [11] | [18]
Compound NOT metabolized: all other assays above

N#Cc1ccc2[nH]cc(CCCCN3CCN(c4ccc5oc(C(N)=O)cc5c4)CC3)c2c1 [VILAZODONE]
Compound NOT metabolized: [15] | [1] | [2] | [3] | [19] | [7] | [10] | [12]
Compound metabolized: all other assays above
